What was measured:
Experiment in all cases: relative viability (nuclei count vs DMSO), 5 days (fraction); higher = more cells survive
Sunitinib + Palbociclib = compound: CCN(CC)CCNC(=O)c1c(C)[nH]c(/C=C2\C(=O)Nc3ccc(F)cc32)c1C [Sunitinib] + CC(=O)c1c(C)c2cnc(Nc3ccc(N4CCNCC4)cn3)nc2n(C2CCCC2)c1=O [Palbociclib] (partner 0.5 µM)
How it was run: (§1)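 Medians of duplicate plates are given as relative viability. That measure is the nuclei count in treated wells divided by the count in vehicle wells. Counts were taken on 4× images of lung cancer cell lines in 1536-well plates, 5 days after pin-tool dosing the day after seeding with one drug alone or a fixed anchor-drug dose plus five library-drug doses (not always all listed) in √10 steps.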

Sunitinib + Bortezomib = compound: CCN(CC)CCNC(=O)c1c(C)[nH]c(/C=C2\C(=O)Nc3ccc(F)cc32)c1C [Sunitinib] + CC(C)C[C@H](NC(=O)[C@H](Cc1ccccc1)NC(=O)c1cnccn1)B(O)O [Bortezomib] (partner 0.002 µM)
How it was run: as §1

Sunitinib + Alpelisib = compound: CCN(CC)CCNC(=O)c1c(C)[nH]c(/C=C2\C(=O)Nc3ccc(F)cc32)c1C [Sunitinib] + Cc1nc(NC(=O)N2CCC[C@H]2C(N)=O)sc1-c1ccnc(C(C)(C)C(F)(F)F)c1 [Alpelisib] (partner 2 µM)
How it was run: as §1

Sunitinib + Dasatinib = compound: CCN(CC)CCNC(=O)c1c(C)[nH]c(/C=C2\C(=O)Nc3ccc(F)cc32)c1C [Sunitinib] + Cc1nc(Nc2ncc(C(=O)Nc3c(C)cccc3Cl)s2)cc(N2CCN(CCO)CC2)n1 [Dasatinib] (partner 0.075 µM)
How it was run: as §1

Cell Line | relative viability (Sunitinib + Palbociclib; first compound 0.02 µM) | relative viability (Sunitinib + Palbociclib; first compound 0.06325 µM) | relative viability (Sunitinib + Palbociclib; first compound 0.2 µM) | relative viability (Sunitinib + Palbociclib; first compound 0.6325 µM) | relative viability (Sunitinib + Palbociclib; first compound 2 µM) | relative viability (Sunitinib + Bortezomib; first compound 0.02 µM) | relative viability (Sunitinib + Bortezomib; first compound 0.06325 µM) | relative viability (Sunitinib + Bortezomib; first compound 0.2 µM) | relative viability (Sunitinib + Bortezomib; first compound 0.6325 µM) | relative viability (Sunitinib + Bortezomib; first compound 2 µM) | relative viability (Sunitinib + Alpelisib; first compound 0.02 µM) | relative viability (Sunitinib + Alpelisib; first compound 0.06325 µM) | relative viability (Sunitinib + Alpelisib; first compound 0.2 µM) | relative viability (Sunitinib + Alpelisib; first compound 0.6325 µM) | relative viability (Sunitinib + Alpelisib; first compound 2 µM) | relative viability (Sunitinib + Dasatinib; first compound 0.02 µM) | relative viability (Sunitinib + Dasatinib; first compound 0.06325 µM) | relative viability (Sunitinib + Dasatinib; first compound 0.2 µM) | relative viability (Sunitinib + Dasatinib; first compound 0.6325 µM) | relative viability (Sunitinib + Dasatinib; first compound 2 µM)
SW 1573 | 0.412 | 0.316 | 0.42 | 0.414 | 0.397 | 0.944 | 1.11 | 1.2 | 1.22 | 1 | 0.715 | 0.827 | 0.932 | 0.84 | 0.784 | 0.464 | 0.55 | 0.64 | 0.526 | 0.391
NCI-H441 | 0.223 | 0.233 | 0.237 | 0.232 | 0.221 | – | 1.05 | 0.533 | 0.281 | 0.558 | – | 0.83 | 0.766 | 0.569 | 0.487 | 0.545 | 0.684 | 0.714 | 0.763 | 0.658
NCI-H1355 | 0.41 | 0.393 | 0.44 | 0.382 | 0.393 | 1.2 | 1.31 | 1.28 | 1.2 | 1.27 | 0.73 | 0.848 | – | 0.829 | 0.857 | 0.715 | 0.804 | 0.943 | 0.756 | 0.674
UMC-11 | 0.339 | 0.386 | 0.379 | 0.351 | 0.33 | 0.61 | – | 0.841 | 0.762 | 0.896 | 0.945 | 1.03 | 0.892 | 0.929 | 0.912 | 0.454 | 0.525 | 0.584 | 0.525 | 0.424
HCC-827 | 0.487 | 0.506 | 0.542 | 0.478 | 0.534 | 1.05 | 1.15 | 1.04 | – | 1.12 | 1.02 | 1.04 | 1.01 | 1.04 | 0.887 | 0.259 | 0.284 | 0.336 | 0.279 | 0.342
NCI-H460 | 0.157 | 0.189 | 0.124 | 0.226 | 0.171 | 1.18 | 1.23 | 1.5 | 1.35 | 1.09 | 0.454 | 0.567 | 0.615 | 0.661 | 0.258 | 0.471 | 0.631 | 0.676 | 0.602 | 0.444
NCI-H1915 | 0.472 | 0.545 | 0.573 | 0.502 | 0.579 | – | 0.994 | 1 | 1.05 | 1.02 | – | 1.09 | 1.13 | 1.06 | 1.11 | 0.302 | 0.346 | 0.322 | 0.34 | 0.296
EPLC-272H | 0.324 | 0.303 | 0.316 | 0.256 | 0.298 | 0.648 | 1.17 | 0.915 | 1.05 | 0.851 | 0.885 | 0.668 | 1 | 1 | 0.729 | 0.385 | 0.418 | 0.374 | 0.409 | 0.333
NCI-H1666 | 0.655 | 0.665 | 0.677 | 0.657 | 0.621 | 0.867 | – | 1.01 | 0.839 | 0.86 | 0.865 | 0.938 | 1.03 | 1.02 | 0.971 | 0.77 | 0.948 | 0.936 | 0.862 | 0.942
NCI-H838 | 0.221 | 0.23 | 0.237 | 0.227 | 0.2 | 0.831 | 1.04 | 0.914 | 0.859 | 0.744 | – | 0.999 | 1.16 | 0.992 | – | 0.324 | 0.293 | 0.322 | 0.291 | 0.285
LOU-NH91 | 0.592 | 0.536 | 0.562 | 0.473 | 0.555 | 0.586 | 0.48 | 0.463 | 0.426 | 0.494 | – | 0.71 | 0.76 | 0.752 | 0.652 | 0.576 | 0.564 | 0.615 | 0.648 | 0.644
HARA | 0.268 | 0.257 | 0.201 | 0.246 | 0.275 | 1 | 1.17 | 1.32 | 1.22 | 1.14 | 0.816 | 0.947 | 0.979 | – | 0.743 | 0.2 | 0.254 | 0.278 | 0.286 | 0.302
NCI-H661 | 0.383 | 0.444 | 0.397 | 0.41 | 0.47 | – | 0.77 | 0.801 | 1 | 0.87 | 0.597 | 0.547 | 0.515 | 0.582 | 0.759 | 0.923 | 1.12 | 1.06 | 1.07 | 1.1
LCLC-103H | 0.499 | 0.488 | 0.484 | 0.495 | 0.52 | 1.11 | 1.19 | 1.2 | 1.04 | 1.18 | 0.822 | 0.945 | 0.993 | 0.958 | 0.959 | 0.428 | 0.527 | 0.501 | 0.462 | 0.589
ABC-1 | 0.623 | 0.57 | 0.609 | 0.763 | 0.724 | 0.294 | 0.309 | 0.297 | 0.289 | 0.312 | 1.08 | 0.994 | 1.2 | 1.26 | 0.837 | 0.561 | 0.609 | 0.495 | 0.513 | 0.49
NCI-H2023 | 0.361 | 0.424 | 0.456 | 0.437 | 0.343 | 0.921 | 1.13 | 1.11 | 1.22 | – | 0.638 | 0.584 | 0.697 | 0.64 | 0.516 | 0.459 | 0.582 | 0.628 | 0.707 | 0.642
NCI-H2087 | 0.27 | 0.266 | 0.25 | 0.28 | 0.255 | 0.855 | 0.793 | 0.966 | 0.994 | 1.04 | 0.904 | 1.06 | 1.11 | 1.23 | 1.01 | 0.717 | 1.25 | 1 | 0.945 | 0.669

From the supplement of paper PMC10307832
